According to ChEMBL document CHEMBL1201862, “PubChem BioAssay data set” (2004):
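1) Cells in 96-well plates. 2) Compound, 48 h, 5 concentrations. 3) Linear interpolation between surrounding doses. 4) Unreached endpoint = highest concentration. GI50 = concentration required for 50% inhibition of growth.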 Active and inactive are the calls of the source. No stated cut-off is given here; in the data, active = GI50 up to about 1.1 µM and inactive = higher.

Assays:
Experiment in all cases: DTP human tumour cell line panel, 48 h
SN12C = system: SN12C
HOP-92 = system: HOP-92
SF-268 = system: SF-268
UO-31 = system: UO-31
HCT-116 = system: HCT-116
OVCAR-5 = system: OVCAR-5
IGROV-1 = system: IGROV-1
M14 = system: M14
CCRF-CEM = system: CCRF-CEM
NCI-H460 = system: NCI-H460
U-251 = system: U-251
SF-539 = system: SF-539

Compound	GI50 (SN12C)	GI50 (HOP-92)	GI50 (SF-268)	GI50 (UO-31)	GI50 (HCT-116)	GI50 (OVCAR-5)	GI50 (IGROV-1)	GI50 (M14)	GI50 (CCRF-CEM)	GI50 (NCI-H460)	GI50 (U-251)	GI50 (SF-539)
COC(=O)C(C(=O)C(=O)Nc1ccc(C)cc1C)c1csc(-n2nc(-c3ccccc3)cc2-c2ccccc2)n1 (stereo not given)	> 100 µM (inactive)	> 100 µM (inactive)	86.7 µM (inactive)	45.6 µM (inactive)	58.1 µM (inactive)	49.9 µM (inactive)	> 100 µM (inactive)	> 100 µM (inactive)	83.2 µM (inactive)	> 100 µM (inactive)	67.5 µM (inactive)	–
COc1ccc(C2C(C(=O)O)=C(COC(C)=O)Oc3cc4c(cc32)OCO4)c(OC)c1 (stereo not given)	> 100 µM (inactive)	90.6 µM (inactive)	–	> 100 µM (inactive)	> 100 µM (inactive)	–	> 100 µM (inactive)	> 100 µM (inactive)	> 100 µM (inactive)	> 100 µM (inactive)	> 100 µM (inactive)	> 100 µM (inactive)
COc1cc2c(cc1O)CCN[C@@]21CS[C@H]2c3c(OC(C)=O)c(C)c4c(c3C(COC1=O)N1C2C2NC(Cc3cc(C)c(OC)c(O)c32)[C@@H]1C#N)OCO4 (stereo not given in full)	< 0.01 µM (active)	–	< 0.01 µM (active)	< 0.01 µM (active)	< 0.01 µM (active)	–	< 0.01 µM (active)	< 0.01 µM (active)	< 0.01 µM (active)	< 0.01 µM (active)	< 0.01 µM (active)	< 0.01 µM (active)
[O-][N+]1=C(c2ccccc2)COc2ccccc21	> 100 µM (inactive)	> 100 µM (inactive)	> 100 µM (inactive)	> 100 µM (inactive)	> 100 µM (inactive)	> 100 µM (inactive)	> 100 µM (inactive)	> 100 µM (inactive)	85.1 µM (inactive)	> 100 µM (inactive)	> 100 µM (inactive)	> 100 µM (inactive)
CC(C)(C)OC(=O)NC1CCCC1=O (stereo not given)	> 100 µM (inactive)	> 100 µM (inactive)	> 100 µM (inactive)	> 100 µM (inactive)	> 100 µM (inactive)	> 100 µM (inactive)	–	> 100 µM (inactive)	> 100 µM (inactive)	> 100 µM (inactive)	> 100 µM (inactive)	> 100 µM (inactive)
COC(=O)/C([Se]c1c(C)cc(C)cc1C)=C(\[Se]c1c(C)cc(C)cc1C)C(=O)OC	> 100 µM (inactive)	> 100 µM (inactive)	> 100 µM (inactive)	> 100 µM (inactive)	> 100 µM (inactive)	> 100 µM (inactive)	> 100 µM (inactive)	> 100 µM (inactive)	> 100 µM (inactive)	> 100 µM (inactive)	> 100 µM (inactive)	> 10 µM (inactive)
C=CC[C@@]1(C#N)C[C@H](C[C@]2(C#N)C[C@H](CCl)OC(C)(C)O2)OC(C)(C)O1	> 100 µM (inactive)	51.9 µM (inactive)	> 100 µM (inactive)	43 µM (inactive)	55.2 µM (inactive)	> 100 µM (inactive)	> 100 µM (inactive)	> 100 µM (inactive)	> 100 µM (inactive)	> 100 µM (inactive)	> 100 µM (inactive)	> 100 µM (inactive)
O=C(O)[C@H](NS(=O)(=O)c1ccc([N+](=O)[O-])cc1)c1ccccc1	> 100 µM (inactive)	> 100 µM (inactive)	> 100 µM (inactive)	> 100 µM (inactive)	> 100 µM (inactive)	> 100 µM (inactive)	> 100 µM (inactive)	> 100 µM (inactive)	> 100 µM (inactive)	> 100 µM (inactive)	> 100 µM (inactive)	> 100 µM (inactive)
c1ccc(N2N=NC3C4CC(C5c6ccccc6C45)C32)cc1 (stereo not given)	33.6 µM (inactive)	19.1 µM (inactive)	34.8 µM (inactive)	28.2 µM (inactive)	24.7 µM (inactive)	44.6 µM (inactive)	56.8 µM (inactive)	54.1 µM (inactive)	14 µM (inactive)	40.6 µM (inactive)	32.5 µM (inactive)	78.5 µM (inactive)
C/C(=N/NS(=O)(=O)c1ccc([N+](=O)[O-])cc1)c1cccc[n+]1[O-]	> 100 µM (inactive)	> 100 µM (inactive)	> 100 µM (inactive)	> 100 µM (inactive)	> 100 µM (inactive)	> 100 µM (inactive)	> 100 µM (inactive)	> 100 µM (inactive)	> 100 µM (inactive)	> 100 µM (inactive)	> 100 µM (inactive)	> 100 µM (inactive)
COc1cccc2c1c1ccc3c(c1n2C)C(=O)C=CC3=O	20.3 µM (inactive)	13.1 µM (inactive)	17.8 µM (inactive)	18.6 µM (inactive)	14.2 µM (inactive)	41.9 µM (inactive)	25.5 µM (inactive)	14.6 µM (inactive)	0.615 µM (active)	48.4 µM (inactive)	48.5 µM (inactive)	16.6 µM (inactive)
COc1cc(C(Cc2ccccc2)NC(C)=O)oc(=O)c1 (stereo not given)	> 100 µM (inactive)	> 100 µM (inactive)	89.1 µM (inactive)	> 100 µM (inactive)	–	> 100 µM (inactive)	> 100 µM (inactive)	> 100 µM (inactive)	> 100 µM (inactive)	> 100 µM (inactive)	> 100 µM (inactive)	–
CCOc1cc2ccc3c4cc(OC)c(OC)cc4cnc3c2cc1OCC	> 100 µM (inactive)	–	> 100 µM (inactive)	> 100 µM (inactive)	> 100 µM (inactive)	> 100 µM (inactive)	> 100 µM (inactive)	> 100 µM (inactive)	> 100 µM (inactive)	> 100 µM (inactive)	> 100 µM (inactive)	> 100 µM (inactive)
COC(=O)C(=O)C(C(=O)C(=O)Nc1ccccc1C(N)=O)c1nc2ccc(C(=O)c3ccccc3)cc2nc1O (stereo not given)	> 100 µM (inactive)	–	> 100 µM (inactive)	58.6 µM (inactive)	> 100 µM (inactive)	> 100 µM (inactive)	> 100 µM (inactive)	> 100 µM (inactive)	> 100 µM (inactive)	> 100 µM (inactive)	> 100 µM (inactive)	> 100 µM (inactive)
CNC1=C(C)C(=O)C(C)=C(C(C)(C)CC(=O)n2cc(F)c(=O)[nH]c2=O)C1=O	8.67 µM (inactive)	> 100 µM (inactive)	55.7 µM (inactive)	24.3 µM (inactive)	8.2 µM (inactive)	> 100 µM (inactive)	67 µM (inactive)	48.1 µM (inactive)	> 65.3 µM (inactive)	2.99 µM (inactive)	> 75.9 µM (inactive)	3.97 µM (inactive)
Cc1ccc2nc(NC(=O)/C(=N\NC(=S)NN)C3C(=O)NC(=S)NC3=O)sc2c1	> 100 µM (inactive)	> 100 µM (inactive)	> 100 µM (inactive)	> 100 µM (inactive)	> 100 µM (inactive)	> 100 µM (inactive)	> 100 µM (inactive)	> 100 µM (inactive)	> 100 µM (inactive)	> 100 µM (inactive)	> 100 µM (inactive)	> 100 µM (inactive)
O=C1C(c2ccc([N+](=O)[O-])cc2)=[N+]([O-])c2ccc([N+](=O)[O-])cc21	–	–	40.8 µM (inactive)	48.9 µM (inactive)	–	> 100 µM (inactive)	26.4 µM (inactive)	96.2 µM (inactive)	24.2 µM (inactive)	> 100 µM (inactive)	49.9 µM (inactive)	52.1 µM (inactive)
C/N=C(\N)c1ccc(NC(=N)c2ccc(C(=N)Nc3ccc(/C(N)=N/C)cc3)cc2)cc1	> 100 µM (inactive)	76 µM (inactive)	> 100 µM (inactive)	> 100 µM (inactive)	–	> 100 µM (inactive)	> 100 µM (inactive)	> 100 µM (inactive)	> 100 µM (inactive)	> 100 µM (inactive)	> 100 µM (inactive)	> 100 µM (inactive)
CC(C)N(C(=O)C12C3C4C5C3C1(C(=O)N(C(C)C)C(C)C)C5(C#N)C42)C(C)C (stereo not given)	> 100 µM (inactive)	> 100 µM (inactive)	> 100 µM (inactive)	> 100 µM (inactive)	38.4 µM (inactive)	> 100 µM (inactive)	> 100 µM (inactive)	> 100 µM (inactive)	22 µM (inactive)	61 µM (inactive)	> 100 µM (inactive)	> 100 µM (inactive)
O=C1COc2cc3c(cc2N1)SCC(=O)N3	–	> 100 µM (inactive)	> 100 µM (inactive)	> 100 µM (inactive)	> 100 µM (inactive)	–	> 100 µM (inactive)	> 100 µM (inactive)	> 100 µM (inactive)	–	–	> 100 µM (inactive)
COC(=O)/C=C/C(=O)C1C(C(=O)OC)C2(C(=O)OC)CCC1(C(=O)OC)N2 (stereo not given)	–	< 0.01 µM (active)	> 100 µM (inactive)	> 100 µM (inactive)	> 100 µM (inactive)	> 100 µM (inactive)	> 100 µM (inactive)	> 100 µM (inactive)	–	–	> 100 µM (inactive)	> 100 µM (inactive)
NCC1(N2CCOCC2)C2CCCC21CO (stereo not given)	> 100 µM (inactive)	> 100 µM (inactive)	> 100 µM (inactive)	> 100 µM (inactive)	> 100 µM (inactive)	> 100 µM (inactive)	> 100 µM (inactive)	> 100 µM (inactive)	> 100 µM (inactive)	> 100 µM (inactive)	> 100 µM (inactive)	> 100 µM (inactive)
C=C1CCC2C(C)(CO)C(O)CCC2(C)C1CC(O)C1=CCOC1=O (stereo not given)	31.4 µM (inactive)	> 100 µM (inactive)	> 100 µM (inactive)	> 100 µM (inactive)	26.5 µM (inactive)	> 100 µM (inactive)	61.1 µM (inactive)	47.3 µM (inactive)	22.9 µM (inactive)	49.9 µM (inactive)	17.3 µM (inactive)	24.3 µM (inactive)
